Read-outs that look alike come from different tables or passages of the source.
How the values were obtained:
[1] = system: SWV/Finn mice; settings: cited from earlier work
[2] = system: pyruvate oxidation of isolated rat liver mitochondria; assay: ADP-stimulated pyruvate oxidation of isolated rat liver mitochondria (high-resolution respirometry); format: biochemical
[3] = system: 2-oxoglutarate oxidation of isolated rat liver mitochondria; assay: ADP-stimulated 2-oxoglutarate oxidation of rat liver mitochondria; format: biochemical; settings: 3 min preincubation with 1 mM ATP, 5 mM MgCl2, 10 mM 2-oxoglutarate, 1 mM ADP, read-out: Apparent IC50 of inhibition of 2-oxoglutarate oxidation
[4] = system: glutamate oxidation of isolated rat liver mitochondria; assay: ADP-stimulated glutamate (+ malate) oxidation of rat liver mitochondria; format: biochemical; settings: 3 min preincubation with 1 mM ATP, 5 mM MgCl2, 10 mM glutamate, 5 mM malate, 1 mM ADP, read-out: Apparent IC50 of inhibition of glutamate oxidation
[5] = target: T1, α-lipoamide dehydrogenase (Rattus norvegicus, UniProt Q6P6R2); assay: α-lipoamide dehydrogenase activity in intact mitochondria (re-reduction of NAD(P)+ after α-lipoamide, NAD(P)H fluorescence); format: biochemical; settings: for IC50: read-out: Apparent IC50 of inhibition of α-lipoamide dehydrogenase; for inhibition of α-lipoamide dehydrogenase (in words): rat liver mitochondria, abstract summary
T1 construct: After 3 min incubation of rat liver mitochondria (0.3 mg protein/mL) in MTP medium; from tissue; host or cells: liver mitochondria of Wistar rat
T1 sequence (Q6P6R2 36-509): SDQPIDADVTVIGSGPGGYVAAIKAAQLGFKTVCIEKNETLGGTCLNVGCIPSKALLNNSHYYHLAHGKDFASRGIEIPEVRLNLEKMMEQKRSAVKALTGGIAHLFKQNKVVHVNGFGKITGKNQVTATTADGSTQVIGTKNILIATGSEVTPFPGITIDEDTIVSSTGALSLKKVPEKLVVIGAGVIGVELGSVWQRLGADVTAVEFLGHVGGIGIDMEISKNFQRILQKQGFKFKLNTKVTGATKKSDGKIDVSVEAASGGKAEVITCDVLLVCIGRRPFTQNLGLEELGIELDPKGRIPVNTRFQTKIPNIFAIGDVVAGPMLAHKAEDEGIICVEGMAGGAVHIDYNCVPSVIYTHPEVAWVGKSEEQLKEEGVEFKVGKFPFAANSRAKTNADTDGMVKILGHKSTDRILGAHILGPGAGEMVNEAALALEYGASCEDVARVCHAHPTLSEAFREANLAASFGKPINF

[6] = system: pilocarpine-induced status epilepticus (SE); settings: cited from earlier work; for protection against pilocarpine-induced status epilepticus: rat
[7] = system: epilepsy model; settings: racemate; dependent on the epilepsy model; cited from earlier work
[8] = cited from earlier work
[9] = target: T2, pyruvate dehydrogenase (Rattus norvegicus, UniProt P26284+P49432); assay: pyruvate dehydrogenase (PDH) activity of isolated rat liver mitochondria; format: biochemical; settings: preincubation with 10 mM VPA and 1 mM ATP; excess α-lipoamide dehydrogenase
T2 construct: the mitochondrial suspension (0.3 mg protein) was placed into a 0.5 mL spectrophotometric cuvette; from tissue; host or cells: liver mitochondria of Wistar rat, solubilised with 0.1% N-dodecyl-β-D-maltoside
T2 sequence (P26284 30-390): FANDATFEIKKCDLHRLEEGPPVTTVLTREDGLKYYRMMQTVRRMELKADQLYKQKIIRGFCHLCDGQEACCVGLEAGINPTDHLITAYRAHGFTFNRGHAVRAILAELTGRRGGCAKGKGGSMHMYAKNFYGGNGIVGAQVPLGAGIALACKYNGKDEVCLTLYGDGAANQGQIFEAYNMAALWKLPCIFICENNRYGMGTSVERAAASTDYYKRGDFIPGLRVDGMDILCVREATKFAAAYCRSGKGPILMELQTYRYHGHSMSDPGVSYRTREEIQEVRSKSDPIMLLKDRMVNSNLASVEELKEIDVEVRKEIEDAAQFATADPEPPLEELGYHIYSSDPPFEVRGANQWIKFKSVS
T2 sequence (P49432 31-359): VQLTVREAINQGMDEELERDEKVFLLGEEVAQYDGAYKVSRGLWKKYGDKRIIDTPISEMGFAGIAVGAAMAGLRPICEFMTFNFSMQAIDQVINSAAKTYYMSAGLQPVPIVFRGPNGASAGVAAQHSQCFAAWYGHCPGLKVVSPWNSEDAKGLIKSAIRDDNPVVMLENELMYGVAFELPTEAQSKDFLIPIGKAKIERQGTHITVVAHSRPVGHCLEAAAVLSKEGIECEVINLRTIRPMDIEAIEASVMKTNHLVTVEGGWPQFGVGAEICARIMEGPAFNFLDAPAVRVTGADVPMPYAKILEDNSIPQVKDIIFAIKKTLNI
Description: (§1) (A) The plotted pyruvate dehydrogenase (PDH) activities are averages of three independent experiments; (B) Swelling of mitochondria in 0.1 M ammonium pyruvate buffer. One representative experiment (out of 3) is shown. […] Experimental conditions as described in Materials and Methods.
PDH activity in this suspension was determined according to Scislowski and Davis with the following modifications: the mitochondrial suspension (0.3 mg protein) was placed into a 0.5 mL spectrophotometric cuvette, containing 0.1 M potassium phosphate buffer (pH 7.4), 5 mM MgCl2, 3 mM NAD^+, 0.1 mM CoASH, 2 mM dithiothreitol, 0.1% N-dodecyl-β-D-maltoside, 0.4 mM thiamine pyrophosphate, 20 µg/mL diaphorase (Boehringer Mannheim, Mannheim, Germany), and 10 mM pyruvate. PDH activity was measured at 30 °C using a spectrophotometer (Aminco DW 2000, SLM Instruments, Urbana, IL, USA) with 340–380 nm dual wavelength photometry.

[10] = system: pyruvate transport of rat liver mitochondria; assay: pyruvate transport: pyruvate-dependent swelling of mitochondria in ammonium pyruvate; format: biochemical; settings: 1 mM compound; rat liver mitochondria in 0.1 M ammonium pyruvate
Description: as §1
For pyruvate transport determinations, the mitochondrial suspension (0.6–0.7 mg protein) was placed into a 3 mL spectrophotometric cuvette, containing 5 mM MgCl2, 2 µM rotenone, 1.5 µg/mL antimycin, and 0.1 M ammonium pyruvate (obtained from ammonium hydroxide and pyruvic acid). When indicated, 1 mM cinnamate was added. Mitochondrial swelling was estimated at 30 °C using a spectrophotometer (Aminco DW 2000, SLM Instruments) at 546 nm.

[11] = patients with epilepsy; cited from earlier work
[12] = SWV/Finn mice, strain highly susceptible to VPA-induced teratogenicity
[13] = isolated rat liver mitochondria, 3 min preincubation with drug, 1 mM ATP, 5 mM MgCl2, 10 mM pyruvate, 5 mM malate, ADP, read-out: Apparent IC50 of inhibition of pyruvate oxidation
[14] = isolated rat liver mitochondria, pyruvate-dependent reduction of NAD(P)+, estimated value

Compound	teratogenic effects [1, 12]	IC50 [2, 13]	IC50 [3]	IC50 [4]	inhibition of α-lipoamide dehydrogenase (in words) [5]	other results
CC[C@H](C)[C@@H](CC)C(N)=O [(2R,3S)-VCD]	did not show any significant teratogenic effects	–	–	–	–	–
CC[C@H](C(N)=O)[C@@H](C)CC [(2S,3S)-VCD]	did not show any significant teratogenic effects	–	–	–	–	–
CCCC(C(=O)O)C(C)CC (stereo not drawn) [SPA, sec-Butylpropylacetic acid]	–	50 µM	50 µM	2000 µM	Strong inhibition	IC50 ([5]; […], pyruvate-dependent reduction of NAD(P)+ after 75 µM α-lipoamide, preincubation with 1 mM ATP): 100 µM
CCCC(C(N)=O)C(C)CC (stereo not drawn) [SPD, sec-Butylpropylacetamide]	–	3000 µM	1000 µM	2000 µM	only small effects	IC50 ([5]; […], pyruvate-dependent reduction of NAD(P)+, estimated value): > 1000 µM
CCC(C)C(CC)C(N)=O (stereo not drawn) [VCD, Valnoctamide]	did not show any significant teratogenic effects	–	–	–	only small effects	IC50 [5, 14]: > 1000 µM; block of pilocarpine-induced electrographic SE ([6]; 180 mg/kg): did block; protection against pilocarpine-induced status epilepticus ([6]; 65 mg/kg intraperitoneally at seizure onset): protected; protection against pilocarpine-induced status epilepticus ([6]; 80 mg/kg 30 min after seizure onset): protection was lost; anticonvulsant activity: concentrations lower than VPA [7]: 2–16 times; biotransformation to the corresponding acid ([8]; in vivo): low biotransformation
CCCC(CCC)C(=O)O [VPA, Valproic acid]	–	50 µM	50 µM	10000 µM	strongly inhibited	IC50 ([2]; isolated rat liver mitochondria, 3 min preincubation with drug, 1 mM ATP, 5 mM MgCl2, 10 mM pyruvate, 5 mM malate, ADP, listed as valproic acid, read-out: Apparent IC50 of inhibition of pyruvate oxidation): ~50 µM; pyruvate-dependent re-reduction of NAD(P)+ after α-lipoamide ([5]; 0.5 and 1 mM VPA): strongly inhibited; glutamate-dependent re-reduction of NAD(P)+ after α-lipoamide ([5]; glutamate as substrate): no effects; IC50 ([5]; isolated rat liver mitochondria, pyruvate-dependent reduction of NAD(P)+ after 75 µM α-lipoamide, preincubation with 1 mM ATP): 80 µM; effect on pyruvate dehydrogenation velocity (PDH activity) [9]: slight increase; effect on pyruvate-dependent swelling velocity (pyruvate transport) [10]: no effect; therapeutic blood levels [11]: 40 to 100 mg/L
CCCC(CCC)C(N)=O [VPD, Valpromide]	–	5000 µM	8000 µM	3000 µM	only small effects	IC50 [5, 14]: > 1000 µM; biotransformation to the corresponding acid ([8]; humans): rapid transformation to VPA
O=[As][O-].[Na+] [arsenite]	–	–	–	–	–	inhibition of DLDH activity [5]: complete inhibition
O=C(O)/C=C/c1ccccc1 [cinnamate]	–	–	–	–	–	effect on pyruvate-dependent swelling velocity (pyruvate transport) [10]: clearly inhibited
Valnoctic acid [VCA]	–	900 µM	200 µM	2000 µM	–	IC50 ([2]; both substrates summarised together, preincubated in the presence of ATP, read-out: IC50 of inhibition of pyruvate and 2-oxoglutarate oxidation rates of liver mitochondria): 200 to 900 µM; IC50 [5]: 300 µM; teratogenic effects ([1]; mouse, in vivo): did not show any significant teratogenic effects
